IC50 data for 17 compounds are collected here from patent US11560391B2, “Sulfonylurea compounds as inhibitors of interleukin-1 activity” (Genentech, Inc., priority 2018, dated 2023).

One test addresses T1, NLRP3 inflammasome (Homo sapiens, UniProt Q96P20).
T1 construct: freshly isolated from human peripheral blood from healthy donors; StemCells Technologies; host or cells: primary human PBMCs
Description: NLRP3 inflammasome activation assay in LPS-primed, nigericin-stimulated PBMCs, IL-1β release. Type of test: cell-based. Particulars: PBMC, LPS priming, 10 μM nigericin. Summed up:
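Fresh or cryopreserved human PBMCs primed with 100 ng/mL LPS for 3 h, pre-incubated 30 min with compound (0.00017-10 uM, or 2-fold 20-point series from 40 μM), then stimulated with 10 μM nigericin for 1.5 h at 37 °C. Supernatant IL-1β measured by ELISA or by HTRF (665/620 ratio).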

The subject of a further test is PBMCs. Description: CTG (CellTiter-Glo) viability assay of compound-treated LPS and nigericin stimulated PBMCs. The settings on record: Homo sapiens, PBMC; read-out: PMBC CTG IC50. Type of test: cell-based, human. The method, then: Human peripheral blood mononuclear cells (PBMCs), consisting of lymphocytes (T, B and NK cells), monocytes and dendritic cells, are freshly isolated from human peripheral blood from healthy donors. Cells are obtained through an IRB approved donor program by iXCells Biotechnologies where all the donors are tested for bacterial and viral infections. Cells are purified from peripheral blood using ficoll gradient centrifugation.
Fresh or cryopreserved PMBCs are seeded in V-bottom 96-well plate at 0.5-1×10^5 cells per well and incubated overnight at 37° C. with 5% CO2 in RPMI 1640 medium with GlutaMAX supplement, 4.5 g/L D-glucose, 10% Fetal Bovine Serum (FBS), […] Sodium Pyruvate, 1% Penicillin/Streptomycin, 10 mM HEPES and 0.05 mM of […]. Freshly isolated or cryopreserved KCs cells are seeded in flat-bottom 96-well plates at 0.6-1.5×10^5 cells/well and incubated overnight at 37° C., 5% CO2 in RPMI 1640 Medium with GlutaMAX supplement, FBS, 1% Penicillin/Streptomycin and 10 mM HEPES. The following day, the cells are primed with 100 ng/mL of lipopolysaccharides (LPS; Sigma Aldrich) in FBS-free RPMI 1640 for 3 h. After the priming step, the media is removed and PBMCs are pre-incubated with serial concentrations of test compounds (0.00017-10 uM) or vehicle (DMSO) for 30 min in FBS-free media prior to addition of the NLRP3 activator. Cells are then stimulated with 10 μM Nigericin (Sigma Aldrich; InvivoGen) for 1.5 h. Plates were centrifuged at 1,500 rpm for 3 minutes to pellet cells and supernatant was transferred into new plates for subsequent experiments.
Viability of compound treated cells is measured using CellTiter-Glo® assay (Promega, Madison, Wis.) that measures the ATP content of cells which is proportional to the number of live cells within a well. This is a counter-screen to establish that the reduction of IL-1β levels in LPS and nigericin stimulated and compound treated cells is not due to cytotoxicity, but rather through the inhibition of the inflammasome pathway. Compounds inhibiting NRLP3 inflammasome activation ultimately increase the viability of LPS and nigericin stimulated cells by blocking NLRP3 mediated pyroptosis that would otherwise lead to cell lysis.

Another test relates to THP-1 ASC-GFP cells. Description: THP-1 ASC-GFP speck assay (NLRP3 inflammasome activation, nigericin). Format: cell-based. Particulars: THP1-ASC-GFP; PMA-differentiated, LPS primed, 10 μM nigericin. The method, then: THP-1 ASC-GFP cell line was purchased from Invivogen, San Diego, for infammasome activation assay. THP-1 ASC-GFP cells stably express a 37.6 kDa ASC::GFP fusion protein that enables monitoring of spec formation by microscopy after activation of NLRP3 dependent inflammasome pathway. Cells were maintained at a density of 600,000 cells/mL in growth media consisting of RPMI 1640, 2 mM L-glutamine, 25 mM HEPES and 10% heat inactivated fetal bovine serum at 37° C. and 5% CO2. Cells were passaged every 3-4 days and used for assays for up to 20 passages.
THP-1 ASC-GFP cells were collected by centrifuging cells at 800 RPM for 5 minutes. Cell culture supernatant was removed and cells were re-suspended in fresh media at density of 1×10^6 cells/mL in assay media consisting of RPMI 1640, 2 mM L-glutamine, 25 mM HEPES and 10% heat inactivated fetal bovine serum. Phorbol 12-myristate 13-acetate (PMA) (Invivogen,tlrl-pma) was added to the cell suspension at a final concentration of 500 ng/ml and mixed thoroughly. 40,000 cells were added per well of a 384 well plate and differentiated into macrophages overnight at 37° C. and 5% CO2. Cells were primed with 1 μg/mL of lipopolysaccharide (Invivogen Ultrapure lipopolysaccharide from E. coli, tlrl-3pelps) in assay media for 3 hours at 37° C. and 5% CO2. After priming, media was removed and THP-1 ASC-GFP cells were preincubated with serially diluted test compounds with starting concentration of 40 μM followed by 2-fold dilution for a 20-point curve or vehicle (DMSO) for 30 min in assay media at 37° C. and 5% CO2. Cells were then stimulated with 10 μM nigericin (Invivogen, tlrl-nig-5) for 90 min at 37° C. and 5% CO2 to activate NLRP3 dependent inflammasome pathway and spec formation. After stimulation, cells were fixed with 4.8% paraformaldehyde (Electron Microscopy Sciences #15710-S) and incubated at room temperature for 15 min. Cells were then washed 3-times with 100 μL of phosphate buffered saline and permeabilized in the presence of premeablization/block buffer for 20 min at room temperature. Cells were then washed 3-times with 100 μL phosphate buffered saline and incubated for 1 hr at room temperature in the presence of hoechst. After staining with Hoechst, cells were washed 3-times with 100 μL phosphate buffered saline and imaged for ASC spec formation.
THP-1 ASC-GFP cells were imaged in 488 and Hoechst channels. Hoechst channel was used for cell count and 488 channel was used to identify number of GFP ASC specks in imaged fields. Percentage of cells with a spec was calculated by dividing the number of GFP positive spots by total number of cells.

Each structure is given as a SMILES string. Like-named read-outs stand apart in the source and are kept apart here.

T1 sequence (Q96P20 whole entry): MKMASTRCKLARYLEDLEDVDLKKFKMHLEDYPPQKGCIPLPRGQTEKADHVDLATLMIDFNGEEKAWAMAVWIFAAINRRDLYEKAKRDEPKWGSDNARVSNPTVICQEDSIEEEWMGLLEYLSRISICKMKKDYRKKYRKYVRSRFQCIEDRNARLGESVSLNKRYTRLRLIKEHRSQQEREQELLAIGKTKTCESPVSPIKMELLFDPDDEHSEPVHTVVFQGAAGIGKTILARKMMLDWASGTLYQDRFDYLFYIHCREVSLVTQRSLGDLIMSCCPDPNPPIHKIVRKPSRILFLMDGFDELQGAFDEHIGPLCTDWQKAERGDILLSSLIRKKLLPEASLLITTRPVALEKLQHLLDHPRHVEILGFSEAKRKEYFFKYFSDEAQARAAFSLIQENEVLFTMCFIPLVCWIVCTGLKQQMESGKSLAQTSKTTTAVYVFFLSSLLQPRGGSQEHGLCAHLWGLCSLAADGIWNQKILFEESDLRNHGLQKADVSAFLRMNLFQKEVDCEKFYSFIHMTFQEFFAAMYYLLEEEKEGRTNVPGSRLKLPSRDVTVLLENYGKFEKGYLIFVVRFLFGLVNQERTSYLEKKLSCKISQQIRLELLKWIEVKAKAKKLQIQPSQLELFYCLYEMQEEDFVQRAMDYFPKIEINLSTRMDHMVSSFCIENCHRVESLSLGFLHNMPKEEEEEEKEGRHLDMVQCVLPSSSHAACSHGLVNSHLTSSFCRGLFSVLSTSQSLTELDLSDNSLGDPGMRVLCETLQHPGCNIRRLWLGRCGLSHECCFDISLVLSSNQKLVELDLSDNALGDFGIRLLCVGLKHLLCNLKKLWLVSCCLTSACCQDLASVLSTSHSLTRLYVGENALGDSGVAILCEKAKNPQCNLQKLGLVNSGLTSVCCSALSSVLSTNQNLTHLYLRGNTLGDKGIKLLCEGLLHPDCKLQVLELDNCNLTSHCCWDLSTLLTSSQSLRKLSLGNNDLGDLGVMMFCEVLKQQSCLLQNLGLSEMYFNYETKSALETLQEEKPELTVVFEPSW

What is called IC50 is the concentration needed to halve the response being measured. Consider `CC(C)c1nn(CC2CC2)c(C(C)C)c1NC(=O)NS(=O)(=O)c1cnn2c1OCCC2` [Example 35, N-((1-(cyclopropylmethyl)-3,5-diisopropyl-1H-pyrazol-4-yl)carbamoyl)-6,7-dihydro-5H-pyrazolo[5,1-b][1,3]oxazine-3-sulfonamide], for which the IC50 worked out at 0.95 µM at NLRP3 inflammasome (read-out: PMBC IL-1β IC50), 120 nM with PBMCs and 1400 nM with THP-1 ASC-GFP cells.
With `CN[C@@H]1COc2c(S(=O)(=O)NC(=O)Nc3c(C(C)C)cc(OC)nc3C(C)C)cnn2C1` [Example 41a, (S)—N-((2,4-diisopropyl-6-methoxypyridin-3-yl)carbamoyl)-6-(methylamino)-6,7-dihydro-5H-pyrazolo[5,1-b][1,3]oxazine-3-sulfonamide], the values for the IC50 at NLRP3 inflammasome (read-out: PMBC IL-1β IC50), with PBMCs and in the test with THP-1 ASC-GFP cells were 0.37 µM, 13 nM and 680 nM, respectively.
As to `CCn1nc(C(C)C)c(NC(=O)NS(=O)(=O)c2cnn3c2OC[C@@H](OC)C3)c1C(C)C` [Example 39a, (S)—N-((1-ethyl-3,5-diisopropyl-1H-pyrazol-4-yl)carbamoyl)-6-methoxy-6,7-dihydro-5H-pyrazolo[5,1-b][1,3]oxazine-3-sulfonamide], the 50% inhibitory concentration (IC50) at NLRP3 inflammasome (read-out: PMBC IL-1β IC50) came to 1.24 µM; in the test on PBMCs, 970 nM; with THP-1 ASC-GFP cells it was 400 nM.
On to `CC(C)c1nn(C(C)C)c(C(C)C)c1NC(=O)NS(=O)(=O)c1cnn2c1OCCC2` [Example 33, N-((1,3,5-triisopropyl-1H-pyrazol-4-yl)carbamoyl)-6,7-dihydro-5H-pyrazolo[5,1-b][1,3]oxazine-3-sulfonamide], for which the values for the IC50 at NLRP3 inflammasome (read-out: PMBC IL-1β IC50), in the test with PBMCs and with THP-1 ASC-GFP cells were 4.96 µM, 4510 nM and 4000 nM, respectively.
On the same counts, the results for `COc1cc(C(C)C)c(NC(=O)NS(=O)(=O)c2cnn3c2OCC(CNC(C)=O)C3)c(C(C)C)n1` (racemic) [Example 40, N-((3-(N-((2,4-diisopropyl-6-methoxypyridin-3-yl)carbamoyl)sulfamoyl)-6,7-dihydro-5H-pyrazolo[5,1-b][1,3]oxazin-6-yl)methyl)acetamide] are 1.5 µM, 1250 nM and 720 nM.
Take `O=C(Nc1nc(-c2ccccc2)cc(C(F)(F)F)n1)NS(=O)(=O)c1cnn2c1OCCC2` [Example 17, N-((4-phenyl-6-(trifluoromethyl)pyrimidin-2-yl)carbamoyl)-6,7-dihydro-5H-pyrazolo[5,1-b][1,3]oxazine-3-sulfonamide]: the IC50 at NLRP3 inflammasome (read-out: PMBC IL-1β IC50) is over 10 µM; in the test on THP-1 ASC-GFP cells, over 9800 nM.
For the compound `COc1cc(C(C)C)c(NC(=O)NS(=O)(=O)c2cnn3c2OC[C@@H](N2CC(OC)C2)C3)c(C(C)C)n1` [Example 42a, Sodium (S)—N-((2,4-diisopropyl-6-methoxypyridin-3-yl)carbamoyl)-6-(3-methoxyazetidin-1-yl)-6,7-dihydro-5H-pyrazolo[5,1-b][1,3]oxazine-3-sulfonamide], the IC50 stood at 0.12 µM on NLRP3 inflammasome (read-out: PMBC IL-1β IC50), 240 nM in the test on PBMCs and 1100 nM in the test on THP-1 ASC-GFP cells.
With `Cc1cc(C)nc(NC(=O)NS(=O)(=O)c2cnn3c2OCCC3)n1` [Example 25, N-((4,6-dimethylpyrimidin-2-yl)carbamoyl)-6,7-dihydro-5H-pyrazolo[5,1-b][1,3]oxazine-3-sulfonamide], the figures for the IC50 on NLRP3 inflammasome (read-out: PMBC IL-1β IC50) and in the test on THP-1 ASC-GFP cells were over 10 µM and over 20000 nM, respectively.
`COc1cc(C)nc(NC(=O)NS(=O)(=O)c2cnn3c2OCCC3)n1` [Example 19, N-((4-methoxy-6-methylpyrimidin-2-yl)carbamoyl)-6,7-dihydro-5H-pyrazolo[5,1-b][1,3]oxazine-3-sulfonamide]: the IC50 was over 10 µM at NLRP3 inflammasome (PMBC IL-1β IC50 (μM)) and over 20000 nM in the test with THP-1 ASC-GFP cells.
As to `Cc1nc(NC(=O)NS(=O)(=O)c2cnn3c2OCCC3)nc2c1CCCC2` [Example 24, N-((4-methyl-5,6,7,8-tetrahydroquinazolin-2-yl)carbamoyl)-6,7-dihydro-5H-pyrazolo[5,1-b][1,3]oxazine-3-sulfonamide], the IC50 is over 10 µM on NLRP3 inflammasome (read-out: PMBC IL-1β IC50) and over 20000 nM with THP-1 ASC-GFP cells.
Take `CC(C)c1cc(Cl)nc(NC(=O)NS(=O)(=O)c2cnn3c2OCCC3)n1` [Example 16, N-((4-chloro-6-isopropylpyrimidin-2-yl)carbamoyl)-6,7-dihydro-5H-pyrazolo[5,1-b][1,3]oxazine-3-sulfonamide]: the IC50 on NLRP3 inflammasome (read-out: PMBC IL-1β IC50) is over 10 µM; in the test with THP-1 ASC-GFP cells, over 20000 nM.
Take `CC(C)(C)c1cc(C(C)(C)C)nc(NC(=O)NS(=O)(=O)c2cnn3c2OCCC3)n1` [Example 22, N-((4,6-di-tert-butylpyrimidin-2-yl)carbamoyl)-6,7-dihydro-5H-pyrazolo[5,1-b][1,3]oxazine-3-sulfonamide]: the concentration for half-maximal inhibition (IC50) at NLRP3 inflammasome (read-out: PMBC IL-1β IC50) was over 10 µM; with THP-1 ASC-GFP cells it was over 20000 nM.
On to `COc1cc(OC)nc(NC(=O)NS(=O)(=O)c2cnn3c2OCCC3)n1` [Example 18, N-((4,6-dimethoxypyrimidin-2-yl)carbamoyl)-6,7-dihydro-5H-pyrazolo[5,1-b][1,3]oxazine-3-sulfonamide], for which the IC50 at NLRP3 inflammasome (PMBC IL-1β IC50 (μM)) is over 10 µM; with THP-1 ASC-GFP cells, over 20000 nM.
With `O=C(Nc1nc(-c2ccccc2)cc2c1CCC2)NS(=O)(=O)c1cnn2c1OCCC2` [Example 23, N-((3-phenyl-6,7-dihydro-5H-cyclopenta[c]pyridin-1-yl)carbamoyl)-6,7-dihydro-5H-pyrazolo[5,1-b][1,3]oxazine-3-sulfonamide], the IC50 is over 10 µM on NLRP3 inflammasome (read-out: PMBC IL-1β IC50) and over 20000 nM in the test on THP-1 ASC-GFP cells.
In the case of `O=C(Nc1nc(Cl)cc(Cl)n1)NS(=O)(=O)c1cnn2c1OCCC2` [Example 4, N-((4,6-dichloropyrimidin-2-yl)carbamoyl)-6,7-dihydro-5H-pyrazolo[5,1-b][1,3]oxazine-3-sulfonamide], the figures for the IC50 at NLRP3 inflammasome (read-out: PMBC IL-1β IC50) and with THP-1 ASC-GFP cells were over 10 µM and over 20000 nM, respectively.
In the case of `Cc1cc(C2CC2)nc(NC(=O)NS(=O)(=O)c2cnn3c2OCCC3)n1` [Example 21, N-((4-cyclopropyl-6-methylpyrimidin-2-yl)carbamoyl)-6,7-dihydro-5H-pyrazolo[5,1-b][1,3]oxazine-3-sulfonamide], the IC50 on NLRP3 inflammasome (read-out: PMBC IL-1β IC50) is over 10 µM; with THP-1 ASC-GFP cells it was 12000 nM.
In the case of `CO[C@@H]1COc2c(S(=O)(=O)NC(=O)Nc3c(C(C)C)cc(C(F)(F)F)nc3C(C)C)cnn2C1` [Example 80a, (S)—N-((2,4-diisopropyl-6-(trifluoromethyl)pyridin-3-yl)carbamoyl)-6-methoxy-6,7-dihydro-5H-pyrazolo[5,1-b][1,3]oxazine-3-sulfonamide, ammonia], the IC50 with THP-1 ASC-GFP cells worked out at 150 nM.
